Assay results as given in ChEMBL document CHEMBL5537186 (J Med Chem, 2024).
≈ marks a conversion by molar mass, not a printed value.

Experiments:
[1] = Lipophilicity, logD of compound at pH 7.4; type: physicochemical; conditions: buffer
[2] = Kinetic aqueous solubility of compound at pH 7.4; type: physicochemical; conditions: read-out: Kinetic_solubility
[3] = Metabolic stability in human hepatocytes assessed as compound remaining measured after 60 mins; type: ADME, cell-based, Hepatocyte; conditions: read-out: Stability
[4] = Dissociation constant, pKa of compound; type: physicochemical
[5] = Kinetic aqueous solubility of compound at pH 4.5; type: physicochemical; conditions: read-out: Kinetic_solubility

SMILES	logD [1]	solubility kinetic [2] [µM]	remaining at 1 h [3] [%]	pKa [4]	solubility kinetic [5] [µM]
Cc1ccc(NC(=O)N2CC[C@@H](CC(F)(F)F)C2)cc1-c1cc(OCC(C)(C)O)nc(N2CCOCC2)c1	3.86	15 (≈ 8.05 µg/mL)	62	–	–
Cc1ccc(NC(=O)N2CC[C@H](CC(F)(F)F)C2)cc1-c1cc(OCCO)nc(N2CCOCC2)c1	3.67	43 (≈ 21.9 µg/mL)	–	–	–
Cc1ccc(NC(=O)N2CC[C@@H](CC(F)(F)F)C2)cc1-c1cc(O[C@H](C)CO)nc(N2CCOCC2)c1	3.99	17 (≈ 8.88 µg/mL)	38	3.8	19 (≈ 9.93 µg/mL)
